Read-outs that look alike come from different tables or passages of the source.
Legend:
Pf = tested on: Pf; set-up: method as in Lanfranchi et al., 2012; conditions: tritiated hypoxanthine assay; ref Lanfranchi et al., 2012; cited from earlier work
[1] = tested on: chloroquine sensitive Pf NF54 strain; conditions: tritiated hypoxanthine assay; ref Figueiredo et al., 1998; Li et al., 2019; cited from earlier work
[2] = tested on: multidrug resistant Pf K1 strain; conditions: tritiated hypoxanthine assay; ref Figueiredo et al., 1998; Li et al., 2019; cited from earlier work
[3] = tested on: asexual blood stage P. falciparum NF54 (drug sensitive); assay: SYBR Green I proliferation assay, asexual blood stage Pf NF54; type: cell-based; conditions: Plasmodium falciparum, NF54; asexual blood stage, SYBR Green I, 96 h, mean ± SEM; this study; read-out: IC50 NF54
Experimental: In vitro cultivation of asexual and gametocyte P. falciparum parasites: P. falciparum asexual blood stage parasites were cultivated in human erythrocytes in RPMI-1640 media supplemented with AlbuMax II under sterile conditions and in a hypoxic environment (90% N2, 5% CO2, and 5% O2) at 37°C as described previously ([Coertzen et al., 2018]; [Wong et al., 2019]). Gametocytes were produced from asexual blood stage parasites in a stage-specific manner through induction of cellular stress as described previously ([Reader et al., 2015]; [Coertzen et al., 2018]; [Wong et al., 2019]; [Reader et al., 2022]).
DHA, artesunate, artemether, chloroquine (CQ), and methylene blue (MB) were used as reference drugs. All assay conditions are as previously described ([Coertzen et al., 2018]; [Wong et al., 2019]). […] Dose-responses were determined using a 2-fold serial drug dilution on in vitro 95% ring-stage intraerythrocytic Pf parasites (1% parasitemia, 1% hematocrit) at 37°C under 90% N2, 5% CO2, and 5% O2 atmospheric conditions, detecting SYBR green I fluorescence as a marker for parasite proliferation following a 96 h drug treatment ([Smilkstein et al., 2004]; [Verlinden et al., 2011]). Activity against the Pf drug-sensitive NF54 strain and the multi drug-resistant K1 (resistant to CQ, quinine, pyrimethamine, and cycloguanil), and W2 (resistant to CQ, quinine, pyrimethamine, and cycloguanil) strains was evaluated. […] Data analysis was performed using GraphPad Prism (version 6) software, intra-assay variability was monitored with Z-factors, and acceptable inter-assay reproducibility was determined from the percent coefficient of variation (CV) ([Reader et al., 2015]). […]
Activity was determined using the SYBR Green I based fluorescence assay on asexual blood stages of the NF54 (drug sensitive), K1 and W2 (drug resistant) strains of P. falciparum. […] Also included in Table 1 for direct comparison of activities against celastrol are data for the internal reference standards MB and artemisone recorded at the same time as for celastrol. […]

[4] = tested on: asexual blood stage Pf NF54; assay: Fixed-ratio isobole drug combination assay (SYBR Green I); type: cell-based, Plasmodium falciparum
Experimental: The in vitro interactions of celastrol with artemisone and MB was determined using a fixed-ratio isobole analysis on Pf NF54 asexual parasites (SYBR Green I-based fluorescence). […] The fractional inhibitory concentration (FIC) for each drug in the combination was calculated as follows:
FIC = IC50 of drug A in combination with drug B/IC50 of drug A
The paired FIC values for the drugs in each combination were linearly plotted to provide the isobologram. The ΣFIC of FIC of drug A in combination with FIC of drug B was determined by calculating the mean FIC value, to obtain the representative FIC value for the drug combination. Data obtained were analysed in Excel, and sigmoidal dose-response curves and isobolograms were plotted using GraphPad 6.0. Experiments were performed in triplicate, and repeated 3 times.
As previously recorded for each of artemiside and artemisone in combination with MB ([Coertzen et al., 2018]), drug-drug interactions were monitored through evaluation of fractional inhibitory concentration (FIC) as determined by isobolograms. A mean ΣFIC<1.0 represents a synergistic interaction, >1.3 an antagonistic interaction and ΣFIC = 1 an indifferent or additive interaction. Isobologram analysis of the combinations of each of artemisone and MB in combination with celastrol was performed against the asexual stages of Pf NF54 using the SYBR Green I based assay. In Table 3 are shown the calculated FIC values for the independent combinations at each ratio as well as the ∑FIC values for each combination. In Figure 5 are presented the independent isoboles for each drug combination.

[5] = tested on: asexual blood stage P. falciparum NF54 (drug sensitive); set-up: method as in Coertzen et al., 2018; Wong et al., 2019; conditions: SYBR Green I, mean ± SEM, ref Coertzen et al., 2018, Wong et al., 2019; cited from earlier work
[6] = tested on: asexual blood stage P. falciparum K1 (multidrug resistant); conditions: asexual blood stage, SYBR Green I, mean ± SEM; ref Coertzen et al., 2018; Wong et al., 2019; cited from earlier work
[7] = tested on: asexual blood stage P. falciparum W2 (multidrug resistant); set-up: method as in Coertzen et al., 2018; Wong et al., 2019; conditions: asexual blood stage, SYBR Green I, mean ± SEM; ref Coertzen et al., 2018; Wong et al., 2019; cited from earlier work
[8] = tested on: immature stage II-III P. falciparum NF54 gametocytes; set-up: method as in Coertzen et al., 2018, Wong et al., 2019; conditions: NF54 gametocytes, luciferase, 48 h, mean ± SEM; ref Coertzen et al., 2018, Wong et al., 2019; read-out: Immature stage II-III (luc 48 h) IC50; cited from earlier work
[9] = tested on: late stage IV-V P. falciparum NF54 gametocytes; set-up: method as in Coertzen et al., 2018, Wong et al., 2019; conditions: NF54 gametocytes, luciferase, 72 h, mean ± SEM; ref Coertzen et al., 2018, Wong et al., 2019; read-out: Late stage IV-V (luc 72 h) IC50; cited from earlier work

CC1=CC(=O)c2ccccc2C1=O [menadione]
IC50 (Pf): 9600 to 12000 nM

COC(=O)[C@]1(C)CC[C@]2(C)CC[C@]3(C)C4=CC=C5C(=CC(=O)C(O)=C5C)[C@]4(C)CC[C@@]3(C)[C@@H]2C1 [Pristimerin, pristimerin, reference compound]
IC50 [1]: 583 nM | IC50 [2]: 409 nM

CN(C)c1ccc2nc3ccc(=[N+](C)C)cc-3sc2c1 [Methylene Blue, methylene blue, reference compound]
IC50 [3]: 5.9 ± 0.8 nM | FIC ([4]; MB:celastrol drug ratio 20:80, Pf NF54): 0.70 | FIC ([4]; MB:celastrol drug ratio 40:60, Pf NF54): 0.67 | FIC ([4]; MB:celastrol drug ratio 60:40, Pf NF54): 0.66 | FIC ([4]; MB:celastrol drug ratio 80:20, Pf NF54): 0.79 | IC50 [5]: 5 nM | IC50 [6]: 6.45 ± 0.3 nM | IC50 [7]: 5.13 ± 0.31 nM | IC50 [8]: 95 ± 11.3 nM | IC50 [9]: 143 ± 16.7 nM
